Compound: Cc1cc(=O)oc2cc(N)ccc12
- solubility (mole fraction) (in DMF, 278.15 K): 0.0579
- solubility (mole fraction) (in DMF, 283.15 K): 0.0725
- solubility (mole fraction) (in DMF, 288.15 K): 0.0902
- solubility (mole fraction) (in DMF, 293.15 K): 0.108
- solubility (mole fraction) (in DMF, 298.15 K): 0.131
- solubility (mole fraction) (in DMF, 303.15 K): 0.156
- solubility (mole fraction) (in DMF, 308.15 K): 0.189
- solubility (mole fraction) (in DMF, 313.15 K): 0.219
- solubility (mole fraction) (in DMF, 318.15 K): 0.251
- solubility (mole fraction) (in DMF, 323.15 K): 0.292
- solubility (mole fraction) (in ethanol, 278.15 K): 0.000941
- solubility (mole fraction) (in ethanol, 283.15 K): 0.00101
- solubility (mole fraction) (in ethanol, 288.15 K): 0.00117
- solubility (mole fraction) (in ethanol, 293.15 K): 0.00123
- solubility (mole fraction) (in ethanol, 298.15 K): 0.00134
- solubility (mole fraction) (in ethanol, 303.15 K): 0.00161
- solubility (mole fraction) (in ethanol, 308.15 K): 0.00177
- solubility (mole fraction) (in ethanol, 313.15 K): 0.00214
- solubility (mole fraction) (in ethanol, 318.15 K): 0.00233
- solubility (mole fraction) (in ethanol, 323.15 K): 0.00262
- solubility (mole fraction) (in ethylene glycol, 278.15 K): 0.000384
- solubility (mole fraction) (in ethylene glycol, 283.15 K): 0.000432
- solubility (mole fraction) (in ethylene glycol, 288.15 K): 0.000531
- solubility (mole fraction) (in ethylene glycol, 293.15 K): 0.000663
- solubility (mole fraction) (in ethylene glycol, 298.15 K): 0.000812
- solubility (mole fraction) (in ethylene glycol, 303.15 K): 0.000974
- solubility (mole fraction) (in ethylene glycol, 308.15 K): 0.00112
- solubility (mole fraction) (in ethylene glycol, 313.15 K): 0.0013
- solubility (mole fraction) (in ethylene glycol, 318.15 K): 0.00145
- solubility (mole fraction) (in ethylene glycol, 323.15 K): 0.00163
- solubility (mole fraction) (in isopropanol, 278.15 K): 0.00103
- solubility (mole fraction) (in isopropanol, 283.15 K): 0.00114
- solubility (mole fraction) (in isopropanol, 288.15 K): 0.00127
- solubility (mole fraction) (in isopropanol, 293.15 K): 0.00152
- solubility (mole fraction) (in isopropanol, 298.15 K): 0.00173
- solubility (mole fraction) (in isopropanol, 303.15 K): 0.00188
- solubility (mole fraction) (in isopropanol, 308.15 K): 0.00208
- solubility (mole fraction) (in isopropanol, 313.15 K): 0.00237
- solubility (mole fraction) (in isopropanol, 318.15 K): 0.00261
- solubility (mole fraction) (in isopropanol, 323.15 K): 0.00294
- solubility (mole fraction) (in water, 278.15 K): 1.07e-05
- solubility (mole fraction) (in water, 283.15 K): 1.38e-05
- solubility (mole fraction) (in water, 288.15 K): 1.74e-05
- solubility (mole fraction) (in water, 293.15 K): 2.18e-05
- solubility (mole fraction) (in water, 298.15 K): 2.75e-05
- solubility (mole fraction) (in water, 303.15 K): 3.41e-05
- solubility (mole fraction) (in water, 308.15 K): 4.18e-05
- solubility (mole fraction) (in water, 313.15 K): 5.14e-05
- solubility (mole fraction) (in water, 318.15 K): 6.27e-05
- solubility (mole fraction) (in water, 323.15 K): 7.57e-05

— BigSolDB 2.1
